Where “and” joins values, the source holds several entries; their conditions need not be identical. Equal values may be shown once. Where a name gives a salt, the structure may show the parent alone. Read-outs that look alike come from different tables or passages of the source.
Test system: SOX2
Test: Screen of a library of FDA-approved drugs for SOX2 antibody staining in A375 cells treated with PLX4720 and AZD6244
Settings: for cor. loess: normalized and geometry-corrected (loess) signal; for norm: signal after plate normalization; for z: Z-test against negative controls (DMSO), single dose 5 uM
[1] = A375 cells, 5 uM test drug with 1 uM PLX4720 and 0.5 uM AZD6244, 24 h
[2] = A375 cells, 5 uM test drug with 1 uM PLX4720 and 0.5 uM AZD6244, 24 h, raw signal (ratio of FL2 SOX2 antibody and FL3 nuclear staining), screen run in duplicate

| SMILES | cor. loess [1] | raw [2] | norm [1] | z | raw |
| --- | --- | --- | --- | --- | --- |
| CCN(CC)C(=S)SSC(=S)N(CC)CC | 0.5909 | 0.973 | 0.642 | 4.87 |  |
| CC(=O)Nc1c(I)cc(I)c(C(=O)O)c1I [ACETRIAZOIC ACID] | 0.3537 | 0.9817 | 0.3797 | 4.812 |  |
| CC(=O)N[C@@H](CC(C)C)C(=O)O [ACETYL-L-LEUCINE] | 0.5782 | 0.9737 | 0.5922 | 6.41 |  |
| CCCCCCc1ccc(O)cc1O.Nc1c2ccccc2nc2ccccc12 [ACRISORCIN] |  | 0.9675 and 0.9751 | 0.7754 and 0.5959 | 4.872 and 7.943 |  |
| CCCSc1ccc2nc(NC(=O)OC)[nH]c2c1 [ALBENDAZOLE] | 0.3977 |  | 0.3992 | 5.411 | 0.9811 |
| CC(=O)OCC(=O)[C@@]12OC3(CCCC3)O[C@@H]1C[C@H]1[C@@H]3CCC4=CC(=O)C=C[C@]4(C)[C@@]3(F)[C@@H](O)C[C@@]12C [AMCINONIDE] | 0.491 | 0.9761 | 0.5647 | 6.68 |  |
| CCN(CC)Cc1cc(Nc2ccnc3cc(Cl)ccc23)ccc1O [AMODIAQUINE DIHYDROCHLORIDE] | 0.9308 | 0.9611 | 1.053 | 7.671 |  |
| C[C@H]1[C@@H](O)O[C@@H]2O[C@@]3(C)CC[C@H]4[C@H](C)CC[C@@H]1[C@@]24OO3 [ARTENIMOL] | 0.4829 | 0.978 | 0.4488 | 5.354 |  |
| C[C@H]1[C@H](OC(=O)CCC(=O)O)O[C@@H]2O[C@@]3(C)CC[C@H]4[C@H](C)CC[C@@H]1[C@@]24OO3 [ARTESUNATE] | 0.3246 | 0.9835 | 0.3139 | 3.471 |  |
| Nc1ncn([C@@H]2O[C@H](CO)[C@@H](O)[C@H]2O)c(=O)n1 [AZACITIDINE] | 0.9945 | 0.9651 | 0.9714 | 8.534 |  |
| S=C(NCc1ccc2c(c1)OCO2)N1CCN(c2ncnc3c2oc2ccccc23)CC1 [Amuvatinib (MP-470), Amuvatinib] | 0.5191 | 0.9748 | 0.6031 | 4.05 |  |
| CC(C)(C)CC(C)(C)c1ccc(OCCOCC[N+](C)(C)Cc2ccccc2)cc1 [BENZETHONIUM CHLORIDE] | 0.9288 | 0.9635 | 0.9712 | 7.654 |  |
| O=C(Oc1cccc2cccnc12)c1ccccc1 [BENZOXIQUINE] | 0.5846 | 0.9731 | 0.6197 | 3.458 |  |
| CCC(=O)OCC(=O)[C@@]1(OC(=O)CC)[C@@H](C)C[C@H]2[C@@H]3CCC4=CC(=O)C=C[C@]4(C)[C@@]3(F)[C@@H](O)C[C@@]21C [BETAMETHASONE 17,21-DIPROPIONATE] | 0.4356 | 0.9801 | 0.4336 | 5.927 |  |
| O=[N+]([O-])C(Br)(CO)CO [BRONOPOL] | 0.4507 | 0.9779 | 0.4505 | 4.996 |  |
| CCCCN1CCCCC1C(=O)Nc1c(C)cccc1C (centres unmarked) [BUPIVACAINE HYDROCHLORIDE] | 0.2934 | 0.9835 | 0.3196 | 3.991 |  |
| COC(=O)[C@]12CCC(C)(C)C[C@H]1[C@H]1C(=O)C=C3[C@@]4(C)C=C(C#N)C(=O)C(C)(C)[C@@H]4CC[C@@]3(C)[C@]1(C)CC2 [Bardoxolone Methyl] | 1.25 | 0.9513 | 1.346 | 9.753 |  |
| CCCCCCCCCCCCCCCC[N+](C)(C)C.[Br-] [CETRIMONIUM BROMIDE] | 5.014 | 0.8841 | 4.765 | 19.51 |  |
| O=C1c2ccccc2C(=O)C1c1ccc(Cl)cc1 [CHLORINDIONE] | 0.3463 | 0.9825 | 0.2966 | 3.839 |  |
| CCC(=O)O[C@]1(C(=O)CCl)[C@@H](C)C[C@H]2[C@@H]3CCC4=CC(=O)C=C[C@]4(C)[C@@]3(F)[C@@H](O)C[C@@]21C [CLOBETASOL PROPIONATE] | 0.4021 | 0.9794 | 0.4554 | 5.471 |  |
| COc1cc2c(c(OC)c1OC)-c1ccc(OC)c(=O)cc1[C@@H](NC(C)=O)CC2 [COLCHICINE] | 0.7111 | 0.9693 | 0.7731 | 5.86 |  |
| C[C@@H]1C[C@@H]([C@H](O)CC2CC(=O)NC(=O)C2)C(=O)[C@@H](C)C1 [CYCLOHEXIMIDE] | 0.6971 | 0.9738 | 0.6756 | 5.982 |  |
| CCS(=O)(=O)N1CCN(c2ccc(Nc3ncc(C(N)=O)c(NC4CC4)n3)cc2)CC1 [Cerdulatinib (PRT062070, PRT2070), Cerdulatinib] | 0.4672 | 0.9741 | 0.6248 | 3.646 |  |
| Nc1cc(F)ccc1NC(=O)c1ccc(CNC(=O)/C=C/c2cccnc2)cc1 [Chidamide] | 1.067 | 0.9618 | 1.02 | 7.547 |  |
| CC(=O)OCC(=O)[C@@]1(O)[C@H](C)C[C@H]2[C@@H]3CCC4=CC(=O)C=C[C@]4(C)[C@@]3(F)[C@@H](O)C[C@@]21C [DEXAMETHASONE ACETATE] | 0.4615 | 0.9769 | 0.5088 | 3.803 |  |
| C[C@@H]1C[C@H]2[C@@H]3CCC4=CC(=O)C=C[C@]4(C)[C@@]3(F)[C@@H](O)C[C@]2(C)[C@@]1(O)C(=O)COP(=O)(O)O [DEXAMETHASONE SODIUM PHOSPHATE] | 0.5299 | 0.9748 | 0.5817 | 4.367 |  |
| CC(=O)OCC(=O)[C@@]1(O)CC[C@H]2[C@@H]3CCC4=CC(=O)C=C[C@]4(C)[C@@]3(Cl)[C@@H](Cl)C[C@@]21C [DICHLORISONE ACETATE] | 0.4911 | 0.9771 | 0.4765 | 5.445 |  |
| C[C@H]1O[C@@H](O[C@H]2[C@@H](O)C[C@H](O[C@H]3[C@@H](O)C[C@H](O[C@H]4CC[C@@]5(C)[C@H](CC[C@@H]6[C@@H]5CC[C@]5(C)[C@@H](C7=CC(=O)OC7)CC[C@]65O)C4)O[C@@H]3C)O[C@@H]2C)C[C@H](O)[C@@H]1O [DIGITOXIN] | 1.488 | 0.9468 | 1.549 | 12.26 |  |
| C[C@H]1O[C@@H](O[C@H]2[C@@H](O)C[C@H](O[C@H]3[C@@H](O)C[C@H](O[C@H]4CC[C@@]5(C)[C@H](CC[C@@H]6[C@@H]5C[C@@H](O)[C@]5(C)[C@@H](C7=CC(=O)OC7)CC[C@]65O)C4)O[C@@H]3C)O[C@@H]2C)C[C@H](O)[C@@H]1O [DIGOXIN] | 1.623 | 0.9433 | 1.668 | 13.38 |  |
| CCCCc1oc2ccc(NS(C)(=O)=O)cc2c1C(=O)c1ccc(OCCCN(CCCC)CCCC)cc1 [DRONEDARONE HYDROCHLORIDE] | 3.823 | 0.8721 | 4.004 | 52.01 |  |

From patent US20200325543A1, “DIAGNOSTIC METHOD” (TOLREMO THERAPEUTICS AG, priority 2017, published 2020)
